In US12612442B2, “G12-specific designer receptor exclusively activated by designer drugs” (CELL NETWORKS GMBH, priority 2019, dated 2026):

Legend:
RhoA [1] = assay: Active RhoA pulldown assay in HN12 cells; assay type: cell-based; conditions: 10 μM CP-55940, 1 μM Ang II, 5 min
Description: (§1) HN12 cells and Cal27 cells were cultured to 50% confluency, and then serum starved overnight. To induce RhoA activation, cells were treated with 5 μM LPA, 1 μM Ang II, or 10 μM CP-55940 for 5 min. Active RhoA levels were measured using the RhoA Pull-Down Activation Assay Biochem Kit (bead pull-down format; Cytoskeleton) following the manufacturer instruction using a modified lysis buffer (50 mM Tris-HCl (pH 7.2), 500 mM NaCl, 10 mM MgCl2, 0.1% SDS, 1% NP-40). Briefly, after stimulation, samples were lysed and protein concentrations were quantified using DC Protein Assay (BioRad). Samples were adjusted to the same concentration with lysis buffer and 500 μg of each protein lysate was added to 15 μL GST-tagged Rhotekin-RBD bound to Sepharose beads. Samples were incubated while rocking at 4° C. for 1.5 h. Beads were then washed, eluted in Laemmli sample buffer, and analyzed by western blot using a mouse monoclonal anti-RhoA antibody (Cytoskeleton).

RhoA [2] = assay: Active RhoA pulldown assay in Cal27 cells; assay type: cell-based; conditions: 10 μM CP-55940, 1 μM Ang II, 5 min
Description: as §1

[3] = test system: DREADDs (M3D, M4D, M3D-Gs, M3D-GPR183/ICL3, M3D-GPR132/ICL3); assay: NanoBiT-G-protein dissociation assay, DREADD panel with titrated CNO; assay type: cell-based, human; conditions: all of the DREADDs, HEK293 cells, read-out: EC50 values of CNO for each primary-coupling G-protein
Description: (§2) Plasmid transfection was performed in a 6-well plate with a mixture of 100 ng Gα-Lg-encoding plasmid, 500 ng Sm-Gβ-encoding plasmid, 500 ng untagged Gγ2-encoding plasmid, 200 ng GPCR-encoding plasmid with or without 100 ng RIC8-encoding plasmid (per well, hereafter). Unless otherwise stated, the combination of following plasmid mixtures was used: Gαs-Lg, Sm-Gβ1, Gγ2 and RIC8B for NanoBiT-Gs; Gαi1-Lg, Sm-Gβ5 and Gγ2 for NanoBiT-Gi1; Gαi2-Lg, Sm-Gβ3 and Gγ2 for NanoBiT-Gi2; Gαi3-Lg, Sm-Gβ3 and Gγ2 for NanoBiT-Gi3; Gαo-Lg, Sm-Gβ1 and Gγ2 for NanoBiT-Go; Gαq-Lg, Sm-Gβ1, Gγ2 and RIC8A for NanoBiT-Gq; Gα12-Lg, Sm-Gβ1, Gγ2 and RIC8A for NanoBiT-G12; Gα13-Lg, Sm-Gβ1, Gγ2 and RIC8A for NanoBiT-G13. After 1-day culture, the transfected cells were harvested with 1 mL of 0.53 mM EDTA-containing Dulbecco's PBS (D-PBS), followed by addition of 2 mL the HEPES-containing HBSS. The cells were pelleted by centrifugation at 190 g for 5 min and resuspended in 2 mL of the 0.01% BSA- and 5 mM HEPES (pH 7.4)-containing HBSS (assay buffer). […] After 2-h incubation with coelenterazine at room temperature, background luminescent signals were measured using a luminescent microplate reader (SpectraMax L, Molecular Devices). […] Luminescent signals were measured 3-5 min after ligand addition and divided by the initial count. […]

M3D-GPR183/ICL3 [4] = biological target: T1, M3D-GPR183/ICL3 (Homo sapiens, UniProt P20309, A239G/DEL264-389/DEL400-485/E393L/E394T/G397S/K260R/L396K/M398G/R261T/T262A/V391N/Y149C); assay: NanoBiT-G-protein dissociation assay, M3D-GPR183/ICL3; assay type: cell-based
T1 construct: expressed in transfected cells; host or cells: parental HEK293 (NanoBiT-G-protein assay); ΔGq HEK293 (TGFα shedding assay)
T1 sequence (P20309 with tags, fused parts or gaps Y149C/A239G/K260R/R261T/T262A/DEL264-389/V391N/E393L/E394T/L396K/G397S/M398G/DEL400-485): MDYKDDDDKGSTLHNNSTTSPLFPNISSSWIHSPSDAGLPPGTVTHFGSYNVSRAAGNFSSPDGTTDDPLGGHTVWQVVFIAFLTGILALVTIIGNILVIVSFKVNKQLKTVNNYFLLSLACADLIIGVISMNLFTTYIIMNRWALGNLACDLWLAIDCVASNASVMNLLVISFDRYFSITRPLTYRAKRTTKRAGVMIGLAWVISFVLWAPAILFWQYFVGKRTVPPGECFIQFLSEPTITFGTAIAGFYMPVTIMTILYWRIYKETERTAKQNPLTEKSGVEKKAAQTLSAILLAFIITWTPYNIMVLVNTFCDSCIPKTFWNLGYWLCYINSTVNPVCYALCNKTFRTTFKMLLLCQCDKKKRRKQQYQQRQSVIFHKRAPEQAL
Description: (§3) Plasmid transfection was performed in a 6-well plate with a mixture of 100 ng Gα-Lg-encoding plasmid, 500 ng Sm-Gβ-encoding plasmid, 500 ng untagged Gγ2-encoding plasmid, 200 ng GPCR-encoding plasmid with or without 100 ng RIC8-encoding plasmid (per well, hereafter). Unless otherwise stated, the combination of following plasmid mixtures was used: Gαs-Lg, Sm-Gβ1, Gγ2 and RIC8B for NanoBiT-Gs; Gαi1-Lg, Sm-Gβ5 and Gγ2 for NanoBiT-Gi1; Gαi2-Lg, Sm-Gβ3 and Gγ2 for NanoBiT-Gi2; Gαi3-Lg, Sm-Gβ3 and Gγ2 for NanoBiT-Gi3; Gαo-Lg, Sm-Gβ1 and Gγ2 for NanoBiT-Go; Gαq-Lg, Sm-Gβ1, Gγ2 and RIC8A for NanoBiT-Gq; Gα12-Lg, Sm-Gβ1, Gγ2 and RIC8A for NanoBiT-G12; Gα13-Lg, Sm-Gβ1, Gγ2 and RIC8A for NanoBiT-G13. After 1-day culture, the transfected cells were harvested with 1 mL of 0.53 mM EDTA-containing Dulbecco's PBS (D-PBS), followed by addition of 2 mL the HEPES-containing HBSS. The cells were pelleted by centrifugation at 190 g for 5 min and resuspended in 2 mL of the 0.01% BSA- and 5 mM HEPES (pH 7.4)-containing HBSS (assay buffer). The cell suspension was seeded in a 96-well culture white plate (Greiner Bio-One) at a volume of 80 μl (per well hereafter) and loaded with 20 μl of 50 μM coelenterazine (Carbosynth) solution diluted in the assay buffer. After 2-h incubation with coelenterazine at room temperature, background luminescent signals were measured using a luminescent microplate reader (SpectraMax L, Molecular Devices). The inventors note that incubation time with coelenterazine can be shortened, but an effect of baseline drift should be taken into account (FIG. 14C-E). Test compound (6×, diluted in the assay buffer) was manually added to the cells (20 μl). Luminescent signals were measured 3-5 min after ligand addition and divided by the initial count. The ligand-induced signal ratio was normalized to that treated with vehicle. The consequent fold-change values were fitted to a four-parameter sigmoidal concentration-response described above.

M3D-GPR132/ICL3 [5] = biological target: T2, M3D-GPR132/ICL3 (Homo sapiens, UniProt P20309, A239G/DEL260-297/DEL301-447/DEL453-484/K449L/K485Q/T451A/Y149C); assay: NanoBiT-G-protein dissociation assay, M3D-GPR132/ICL3; assay type: cell-based
T2 construct: expressed in transfected cells; host or cells: parental HEK293 (NanoBiT-G-protein assay); ΔGq HEK293 (TGFα shedding assay)
T2 sequence (P20309 with tags, fused parts or gaps Y149C/A239G/DEL260-297/DEL301-447/K449L/T451A/DEL453-484/K485Q): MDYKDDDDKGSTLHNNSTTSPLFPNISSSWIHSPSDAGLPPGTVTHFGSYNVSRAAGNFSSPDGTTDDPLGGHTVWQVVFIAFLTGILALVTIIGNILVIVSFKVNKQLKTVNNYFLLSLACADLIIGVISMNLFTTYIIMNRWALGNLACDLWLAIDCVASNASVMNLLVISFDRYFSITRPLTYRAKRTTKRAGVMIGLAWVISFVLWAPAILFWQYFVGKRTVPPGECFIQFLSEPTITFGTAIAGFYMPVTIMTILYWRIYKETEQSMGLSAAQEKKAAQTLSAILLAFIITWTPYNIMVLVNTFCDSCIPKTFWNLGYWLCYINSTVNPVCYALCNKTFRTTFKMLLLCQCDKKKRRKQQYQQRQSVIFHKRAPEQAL
Description: as §3

M3D-P2RY10/ICL3 = assay: NanoBiT-G-protein dissociation assay, M3D-P2RY10/ICL3; assay type: cell-based, human; conditions: 10 μM CNO; parental HEK293 cells
Description: as §2

M3D-NMBR/ICL3 = assay: NanoBiT-G-protein dissociation assay, M3D-NMBR/ICL3; assay type: cell-based, human; conditions: 10 μM CNO; parental HEK293 cells
Description: as §2

M3D-LTB4R2/ICL3 = assay: NanoBiT-G-protein dissociation assay, M3D-LTB4R2/ICL3; assay type: cell-based, human; conditions: 10 μM CNO; parental HEK293 cells
Description: as §2

M3D-GPR183/ICL3 [6] = biological target: T1, M3D-GPR183/ICL3; assay: TGFα shedding assay in ΔGq HEK293 cells, M3D-GPR183/ICL3; assay type: cell-based; conditions: 10 μM CNO
Description: (§4) The TGFα shedding assay was performed as described previously (Inoue et al., 2012) with minor modifications. Plasmid transfection was performed in a 6-well plate with a mixture of 500 ng AP-TGFα-encoding plasmid, 200 ng GPCR-encoding plasmid with or without 100 ng Gα-encoding plasmid (per well, hereafter). After 1-day culture, the transfected cells were harvested by trypsinization, pelleted by centrifugation at 190 g for 5 min and washed once with Hank's Balanced Salt Solution (HBSS) containing 5 mM HEPES (pH 7.4). After centrifugation, the cells were resuspended in 6 ml of the HEPES-containing HBSS. […] The cell suspension was seeded in a 96-well culture plate (cell plate) at a volume of 90 μl (per well hereafter) and incubated for 30 min in a 5% CO2 incubator at 37° C. The cells were treated with a GPCR ligand (10×, diluted in HBSS containing 5 mM HEPES (pH 7.4) and 0.01% (w/v) bovine serum albumin (BSA, fatty acid-free and protease-free grade; Serva)). After spinning the cell plates, conditioned media (80 μl) was transferred to an empty 96-well plate (conditioned media (CM) plate). […] Absorbance at 405 nm (Ab405) of the plates was measured, using a microplate reader (SpectraMax 340 PC384, Molecular Devices), before and after 1-h or 2-h incubation at room temperature. Ligand-induced AP-TGFα release was calculated as described previously. […]

M3D-GPR132/ICL3 [7] = biological target: T2, M3D-GPR132/ICL3; assay: TGFα shedding assay in ΔGq HEK293 cells, M3D-GPR132/ICL3; assay type: cell-based; conditions: 10 μM CNO
Description: as §4

RhoA [8] = assay: NanoBiT-RhoA assay in PC-3 cells (endogenously expressed GPCRs); assay type: cell-based, human; conditions: thrombin 1000 U L^−1
Description: (§5) The transfected cells were harvested, seeded in a white 96-well plate and loaded with 10 μM CTZ in the same manner described in the NanoBiT-G-protein dissociation assay. After measuring an initial luminescent signal, test compounds were added to the cells. Then, 3-5 min later, luminescent signals were measured and fold-change values were plotted as described above.

RhoA [9] = assay: NanoBiT-RhoA assay in MDA-MB-231 cells (endogenously expressed GPCRs); assay type: cell-based, human; conditions: thrombin 1000 U L^−1
Description: as §5

CNR1 = CNR1 (Homo sapiens, UniProt P21554); conditions: HEK293 cells expressing CNR1
Description: as §5

[10] = 10 μM CNO, parental HEK293 cells
[11] = titrated CNO, NanoBiT-Gs, Go, Gq, G12 compared

CNR1, sequence (P21554 whole entry): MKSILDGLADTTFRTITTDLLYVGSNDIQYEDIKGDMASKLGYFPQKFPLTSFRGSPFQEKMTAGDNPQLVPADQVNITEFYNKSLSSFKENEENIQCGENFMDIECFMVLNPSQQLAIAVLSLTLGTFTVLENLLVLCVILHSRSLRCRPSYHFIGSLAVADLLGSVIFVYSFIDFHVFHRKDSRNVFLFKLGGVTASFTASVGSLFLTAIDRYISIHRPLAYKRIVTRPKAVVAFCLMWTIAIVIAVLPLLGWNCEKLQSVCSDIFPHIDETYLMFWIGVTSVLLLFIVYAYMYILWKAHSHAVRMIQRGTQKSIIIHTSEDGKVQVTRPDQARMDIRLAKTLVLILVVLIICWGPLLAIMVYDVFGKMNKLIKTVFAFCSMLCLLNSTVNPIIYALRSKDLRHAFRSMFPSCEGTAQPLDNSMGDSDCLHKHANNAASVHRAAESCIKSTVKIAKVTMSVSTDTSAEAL

angiotensin II (DRVYIHPF; Angiotensin-2; UniProt P01019 25-32, looked up) [Ang II, endogenous ligand of AGTR1]
RhoA activation (GTP-bound RhoA pulldown) (RhoA [1]): induced activation of RhoA
RhoA activation (GTP-bound RhoA pulldown) (RhoA [2]): induced activation of RhoA

C[N+]1([O-])CCN(C2=Nc3cc(Cl)ccc3Nc3ccccc32)CC1 [CNO, clozapine-N-oxide]
EC50 [3]: 100 to 1000 nM
NanoBiT-G13 dissociation signal (M3D-GPR183/ICL3 [4]; 10 μM CNO): lack of G13 activation
G12 and Go coupling (NanoBiT-G12 / NanoBiT-Go screening) (M3D-GPR183/ICL3 [4]; [10]): coupled to G12 and not to Go
G12 dissociation signal (M3D-GPR183/ICL3 [4]; [11]): robust G12 dissociation signal
NanoBiT-G13 dissociation signal (M3D-GPR132/ICL3 [5]; 10 μM CNO): lack of G13 activation
G12 and Go coupling (NanoBiT-G12 / NanoBiT-Go screening) (M3D-GPR132/ICL3 [5]; [10]): coupled to G12 and not to Go
G12 dissociation signal (M3D-GPR132/ICL3 [5]; [11]): robust G12 dissociation signal
G12 and Go coupling (NanoBiT-G12 / NanoBiT-Go screening) (M3D-P2RY10/ICL3): coupled to G12 and not to Go
G12 and Go coupling (NanoBiT-G12 / NanoBiT-Go screening) (M3D-NMBR/ICL3): coupled to G12 and not to Go
G12 and Go coupling (NanoBiT-G12 / NanoBiT-Go screening) (M3D-LTB4R2/ICL3): induced both G12 and Go coupling with a higher Go dissociation signal
G12 signaling (TGFα shedding response) (M3D-GPR183/ICL3 [6]): significant G12 signaling
G12 signaling (TGFα shedding response) (M3D-GPR132/ICL3 [7]): significant G12 signaling

thrombin
RhoA activation (RhoA [8]): activated RhoA
RhoA activation (RhoA [9]): activated RhoA

CCCCCCC(C)(C)c1ccc([C@@H]2C[C@H](O)CC[C@H]2CCCO)c(O)c1 [CP-55940]
RhoA activation (GTP-bound RhoA pulldown) (RhoA [1]): induced activation of RhoA
RhoA activation (GTP-bound RhoA pulldown) (RhoA [2]): induced activation of RhoA
RhoA activation (CNR1): RhoA activation occurred
